Data: article PMC8746574 (Molecules, 2022)
Read-outs that look alike come from different tables or passages of the source.

Key:
[1] = system: SARS-CoV-2 (three strains); assay: Antiviral activity against three strains of SARS-CoV-2 on Vero E6 cells (summary statements)
in vitro = conditions: African green monkey
[2] = system: HIV-1 pseudotyped viruses; assay: Inhibitory activity against HIV-1 pseudoviruses in TZM-bl cells (summary statements); assay type: cell-based; conditions: neutralizing assays, SF162.LS, QH0692, 16RU28
Experimental: To evaluate the inhibitory activities of the synthesized compounds, HIV-1 pseudotyped viruses SF162.LS and […] subtype B (which are included in the international reference panel), and pseudotyped viruses of the recombinant form CRF63_02A—16RU28 HIV-1 were used. Genetic variant CRF63_02A is currently the dominant type in Siberia and is rapidly spreading in the rest of the Russian Federation.
The anti-HIV-1 activity of the tested compounds was performed using the TZM-bl assay, carried out in 96-well culture plates, as described previously. Briefly, serial 2-fold dilutions of the tested compounds were prepared in DMEM growth medium, 200 TCID50 pseudovirus were added to each well and incubated for 1 h at 37 °C under 5% CO2. Trypsinized TZM-bl cell suspension was then added (100 μL of 2 × 10^5 cells/mL) and plates were further incubated at 37 °C under 5% CO2. After 48 h, the luminescence signal was recorded using the luciferase assay system (Promega). The percent inhibition for each compound was calculated as the ratio between the relative luminescence unit (RLU) values of the test wells (sample + pseudovirus + cells) and the virus control (pseudovirus + cells). Samples were tested in triplicates, and the experiment was repeated twice.

TZM-bl cells = assay: MTT cytotoxicity assay in TZM-bl cells; assay type: cell-based; conditions: MTT test
Experimental: (§1) The cytotoxicity of the obtained compounds was assessed in TZM-bl cells using the MTT test. The preparations were diluted with DMEM medium so that their starting concentration was 1000 μM and the final volume of DMSO was no more than 1%. Additionally, we compared the cytotoxicity of DMEM and medium with 1% DMSO in TZM-bl cells and found no significant differences in cell survival. […] A range of non-toxic concentrations was determined for each compound and used in subsequent experiments on their antiviral activity.
(§2) TZM-bl cells were seeded into 96-well culture plates (100 μL of cell suspension or 10^4 p cells per well) and placed in a CO2 incubator. The test compounds were dissolved in DMSO at a concentration of 100 mM. After 24 h of incubation, various concentrations of the test compounds (1000, 500, 250, 125, 62.5, 31.25, and 15.6 μM) were added by titration to the TZM-bl cell culture, in triplicates. DMSO was added to the control wells at a concentration of no more than 1%. The plates with the introduced drugs were incubated in a CO2 incubator at 37 °C under 5% CO2. After 72 h of incubation, 20 μL of MTT working solution (5 mg/mL) was added to each well and the plates were again incubated under the same conditions. After 2 h, the plates were removed from the CO2 incubator, and the medium in each well was replaced with DMSO solution (50 μL per well). The plates were shaken gently to dissolve the formazan crystals. The optical density of each well was determined at 570 nm using a Varioscan LUX plate reader (Thermo scientific). The survival rate of TZM-bl cells in the presence of the tested compounds was calculated using the formula: (OD of experimental wells—OD of medium)/(OD of control wells—OD of medium) × 100%, where OD is optical density.

[3] = MTT cytotoxicity assay in TZM-bl cells; assay type: cell-based; conditions: human; TZM-bl cells, MTT test, 72 h incubation
Experimental: as §1, §2

[4] = system: SARS-CoV-2 hCoV-19/Australia/VIC01/2020 (lineage B); assay: Reduction of cytopathic effect on Vero E6 cells, MTT, strain hCoV-19/Australia/VIC01/2020; assay type: cell-based
[5] = system: HIV-1 pseudotyped virus OH0692 (subtype B); assay: TZM-bl neutralization assay with HIV-1 env-pseudovirus OH0692; assay type: cell-based; conditions: read-out: IC50 OH0692; HIV-1 env-pseudovirus OH0692, TZM-bl cells, luciferase after 48 h
[6] = system: HIV-1 pseudotyped virus SF162.LS (subtype B); assay: TZM-bl neutralization assay with HIV-1 env-pseudovirus SF162.LS; assay type: cell-based; conditions: read-out: IC50 SF162.LS, TZM-bl cells, luciferase after 48 h
[7] = system: HIV-1 pseudotyped virus 16RU28 (recombinant form CRF63_02A); assay: TZM-bl neutralization assay with HIV-1 env-pseudovirus 16RU28; assay type: cell-based; conditions: read-out: IC50 16RU28; HIV-1 env-pseudovirus 16RU28 (CRF63_02A), TZM-bl cells, luciferase after 48 h

| Compound | antiviral activity against the three coronavirus strains (in words) [1] | CC50 (in vitro) [µM] | inhibitory activity against HIV-1 pseudotyped viruses (in words) [2] | toxicity against the TZM-bl cell line (in words) (TZM-bl cells) | CC50 at 72 h [3] [µM] | cytotoxicity on Vero cells (in words) (Vero E6 cells) | CC50 at 4 days (in vitro; Vero E6 cells) [µM] | parameter C of 4-parameter fit, toxity curve (Vero E6 cells; SOFTmax PRO 4.0, primary data, plate with strain B) | IC50 ([4]; Severe acute respiratory syndrome coronavirus 2, Vero C1008, 96 h, Vero E6 cells, 100 TCD50 per well, 4 days, MTT, lineage B, read-out: IC50 hCoV-19/Aust/VIC01/2020) [µM] | IC50 ([4]; Vero C1008, SARS-CoV 2 (B), SOFTmax PRO 4.0, primary data, read-out: parameter C of 4-parameter fit, activity curve) [µg/mL] | IC50 [5] [µM] | IC50 [6] [µM] | IC50 [7] [µM] |
| --- | --- | --- | --- | --- | --- | --- | --- | --- | --- | --- | --- | --- | --- |
| CC1(C)[C@@H](O[C@H]2O[C@H](C(=O)O)[C@@H](O)[C@H](O)[C@H]2O[C@@H]2O[C@H](C(=O)O)[C@@H](O)[C@H](O)[C@H]2O)CC[C@]2(C)[C@H]3C(=O)C=C4[C@@H]5C[C@@](C)(C(=O)O)CC[C@]5(C)CC[C@@]4(C)[C@]3(C)CC[C@@H]12 [Glycyrrhizin] | no antiviral activity | > 1000 | did not exhibit any inhibitory activity | negligible toxicity | > 1000 | no cytotoxicity |  |  |  |  |  |  |  |
| CC1(C)C2CC[C@]3(C)C(C(=O)C=C4[C@@H]5C[C@@](C)(C(=O)O)CC[C@]5(C)CC[C@]43C)[C@@]2(C)CC[C@@H]1OC(=O)c1cccnc1 (stereo partly shown) [Nic-GA, glycyrrhetinic acid nicotinate] | did not exhibit any antiviral activity | 101 | lack of inhibition | some cytotoxic activity | < 7.8 | less toxic to Vero cells than to Tzm-bl cells |  |  |  |  |  |  |  |
| CCC(CC)COC(=O)[C@H](C)N[P@](=O)(OC[C@H]1O[C@@](C#N)(c2ccc3c(N)ncnn23)[C@H](O)[C@@H]1O)Oc1ccccc1 [Remdesivir] |  |  |  |  |  |  | 711 ± 21.2 | 428,695 µg/ml | 3.3 ± 0.12 | 2020 |  |  |  |
| Maraviroc [MVC] |  |  |  |  |  |  |  |  |  |  | 0.002 | 0.002 | 0.0016 |
